PubChem BioAssay AID730 (The Scripps Research Institute Molecular Screening Center, 2007)
Calls of active or inactive are those of the source.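 How the source made its calls: active means EC50 at or below 10 micromolar, taken from the curve fit or judged by hand from the single doses; inactive means EC50 above 10 micromolar.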

Target: CHO S1P3/Ga15 NFAT-beta-lactamase reporter, FRET fluorescence
Assay: nonspecific agonism in S1P3 NFAT-BLA cells – counter-screen for 5HT1E agonist project, dose response (AID 730)

CN1CCN(/C(=N\O)c2nonc2N)CC1
EC50: > 40 µM (inactive)

CCOC(=O)C1=C(C)NC(=O)NC1c1ccc(OCC(=O)Nc2ccccc2)c(OC)c1 (stereo not drawn)
EC50: > 40 µM (inactive)

Cn1cc(/C(Cc2ccccc2)=N\O)c2ccccc21
EC50: > 40 µM (inactive)
